# Laboratory results taken from patent US12090164B2, “Genotype-agnostic rescue of cystic fibrosis with small molecule bicarbonate channels” (The Board of Trustees of the University of Illinois, priority 2017, dated 2024).
# Entries after “also recorded” stand apart in the source; their conditions may differ.
# Experiments:
# CuFi-1 epithelia [1] = experiment: ASL height by confocal microscopy; type: cell-based, human
# Method: ASL height was studied using an established fluorescent dye assay (60, 61). Small diameter NuLi and CuFi-1 cultured epithelia were used for this experiment (0.33 cm^2). 24 hours prior to the start of experiment, the apical side of all cultured epithelia was rinsed three times with warm PBS to remove excess mucus. NuLi epithelia were treated with perfluorocarbon (FC-72) vehicle or 500 µM basolateral bumetanide in DMSO vehicle applied to the media, and CuFi epithelia were treated with 20 μL vehicle, 0.005, 0.5, or 50 μM AmB, or 0.5 μM C35deOAmB suspended in perfluorocarbon (FC-72, Sigma), with or without 500 μM basolateral bumetanide in DMSO vehicle applied to the media and incubated for 24 hours at 37° C. After 24 hours, 2.5 μL of a 2 mg/mL 70 kDa Texas Red-dextran conjugate (Molecular Probes) solution in PBS was added to the apical side of the epithelia, followed by 100 μL of FC-770 to prevent evaporation. Then the culture support was placed on top of 100 μL of PBS on a 10 mm glass bottom Fluorodish for imaging (World Precision Instruments). Epithelia were imaged immediately after dye addition and again at 24 hours to examine dye absorption. Three Z-stack images per membrane were taken on an Zeiss LSM700 confocal microscope at 40× oil immersion. These images were analyzed using ImageJ (62) to determine the average ASL height in the center 1300 pixels of each image. Images were smoothed, converted to 8-bit, and thresholded to most accurately represent the red area. The parameters for Analyze Particles were particles from 1-Infinity μm^2 in size and from 0%-100% circularity. Height was determined by dividing the area output in pixels by the known 1300 pixel width and converted to microns using the known scaling factor of 0.49 µm/pixel.
# CuFi-1 epithelia [2] = experiment: Transepithelial electrical resistance (Rt); type: cell-based, human; conditions: vehicle, 2 uM or 50 uM AmB, extended timeframes
# Method: Small diameter CuFi-1 cultured epithelia were used for this experiment (0.33 cm^2) Cultured epithelia were treated with FC-72 vehicle, 2 and 50 μM AmB administered in perfluorocarbon (FC-72, Sigma) for 48 hours, 7 days, or 28 days. 200 μL of fresh USG media was placed on the apical side of the epithelia. Transepithelial electrical resistance (Rt) was then measured using a Millicell® ERS-2 Voltohmmeter across the apical and basolateral sides of the epithelia in a snaking pattern for two technical replicates per biological replicate.
# [3] = system: CuFi-1 (ΔF508/ΔF508) epithelia; experiment: Basolateral to apical H14CO3- transport; type: cell-based, human; conditions: AmB 2 μM basolateral
# Staphylococcus aureus = experiment: Direct killing of S. aureus by AmB alone; type: cell-based; conditions: AmB 2 μM alone vs saline
# Method: Staphylococcus aureus-coated gold grids were used to measure antibacterial activity of airway epithelial cultures (3, 4). Small diameter primary cultured epithelia were used for this experiment (0.33 cm^2). Bacteria-coated gold TEM grids were placed onto the apical surface of airway epithelia for 1 min after 48 hours of perfluorocarbon (FC-72, Sigma), 2 μM AmB, or 2 μM C35deOAmB treatment. As controls, bacteria-coated grids were also placed in saline or AmB in FC-72 laid over saline to simulate the administration method for 1 minute. After removal, bacteria on the grids were assessed for viability using Live/Dead BacLight Bacterial Viability assay (Invitrogen). Viability was determined in 4-6 fields to determine the percentages of dead bacteria.
# [4] = system: CuFi-1 (ΔF508/ΔF508) epithelia; experiment: Ussing chamber short-circuit current response to CFTR activation; type: cell-based, human; conditions: AmB 2 μM, 48 h
# Method: To assess the presence of membrane-expressed CFTR, differentiated cultures of NuLi and CuFi-1 epithelia grown on Corning Costar 0.4 μm 24-well plate Transwell Clear Polyester Membrane inserts were used. NuLi and CuFi-1 epithelia were treated with 20 μL of perfluorocarbon (FC-72, Sigma) vehicle or 2 μM amphotericin B (AmB) sonicated into a suspension in FC-72. After 48 hours of incubation, the epithelia were mounted in a dual-channel Ussing chamber (Warner U2500) using the culture cup insert for Transwell adapter, 6.5 mm (Warner U9924T-06) and bathed on both the apical and basolateral sides with a HCO3^− solution (120 mM NaCl, 25 mM NaHCO3, 5 mM KCl, 2 mM CaC2, 1.2 mM MgC2, 13.75 mM NaH2PO4, pH 7.0) at 37° C. and gassed with compressed air. Dextrose was added to this solution immediately prior to experiments to a final concentration of 5.6 mM. Epithelial sodium channel (ENaC) and calcium-activated chloride channel (CaCC) were inhibited by apical addition of 1 μM amiloride and 1 μM DIDS (4,4′-disothiocyanostilbene-2,2′-disulfonic acid), respectively, to achieve a baseline for permeabilization. 10 μM forskolin/100 μM IBMX (3-isobutyl-1-methylxanthine) added apically was used to activate CFTR, and 1 μM CFTRinh-172 was used to inhibit CFTR. Each successive addition of reagent was allowed approximately 10 minutes to equilibrate before the addition of the next reagent (15).
smiles,measurement,setting,value
"C[C@@H]1[C@H](O)[C@@H](C)/C=C/C=C/C=C/C=C/C=C/C=C/C=C/[C@H](O[C@@H]2O[C@H](C)[C@@H](O)[C@H](N)[C@@H]2O)C[C@@H]2O[C@](O)(C[C@@H](O)C[C@@H](O)[C@H](O)CC[C@@H](O)C[C@@H](O)CC(=O)O[C@H]1C)C[C@H](O)[C@H]2C(=O)O [AmB, amphotericin B]","ASL height, basolateral AmB",CuFi-1 epithelia [1],did not increase ASL height
same,"ASL height, apical addition",CuFi-1 epithelia [1]; 0.5 μM,increased ASL height in CuFi-1 epithelia to match that of NuLi epithelia; also recorded: increases ASL height
same,membrane integrity / transepithelial electrical resistance (Rt),CuFi-1 epithelia [2],did not disrupt membrane integrity; also recorded: no difference in transepithelial electrical resistance; also recorded: did not differ between treatment with vehicle or increasing doses of AmB
same,"basolateral to apical H^14CO3^− transport, basolateral addition of AmB",[3],did not; also recorded: caused no increase ASL ^14C bicarbonate; also recorded: did not raise ASL pH or increase H^14CO3^− secretion
same,direct antibacterial activity against S. aureus,Staphylococcus aureus,insensitive to direct killing by AmB; also recorded: does not have antibacterial activity against S. aureus
same,short circuit current response to forskolin/IBMX of AmB-treated epithelia,[4],did not show an increase in short circuit current in response to forskolin/IBMX; also recorded: did not respond to chemical activation of CFTR
